Patent US20250179022A1, “COMPOUND USED AS TYK2 INHIBITOR, PREPARATION METHOD THEREFOR, AND PHARMACEUTICAL USE THEREOF” (SHANGHAI ZHIGEN PHARMACEUTICAL & TECHNOLOGY CO. LTD., priority 2022, published 2025)

How the values were obtained:
TYK2 = target: T1, TYK2 (Homo sapiens, UniProt P29597, E957D); experiment: TYK2 kinase activity inhibition assay (Ba/F3-FL-TYK2-E957D cell proliferation, CellTiter-Glo); format: cell-based; details: 72 h
T1 construct: host or cells: Ba/F3 (murine B lymphocytes)
Experimental: The TYK2 kinase gene was introduced into wild-type murine-derived B lymphocytes (BaF3) to construct the Ba/F3-FL-TYK2-E957D stable cell line.
In this experiment, the inhibitory effect of the compounds on the proliferation of Ba/F3-FL-TYK2-E957D cells were tested, apoptosis was detected, and the IC50 value was calculated. The inhibitory activity of the compounds against TYK2 kinase was evaluated based on the IC50 value.
The tested compounds, powder and stored at room temperature, were prepared into 10 mM stock solution with DMSO and stored at −20° C. away from light for use.
Compounds were prepared into dilute solutions which was 1000 times of the final concentration. The compound was prepared into 20-times of the final concentration by diluting the compound with culture medium. 2 ul of 1000-times compound was added to per well to 98 ul of culture medium.
Cells (provided by Sundia Pharmaceutical Technology (Shanghai) Co., Ltd.) were resuspended and counted using an automated cell counter. The cell suspension was diluted to the desired density based on BaF3 seeding density of 2000 cells per well. Each well was plated with 95 ul of cells and incubated at 37° C. for stable equilibrium. 5 ul of 20-times compound was added to each well, with the wells to which the same volume of DMSO was added as a control.
The cell plate was equilibrated to room temperature. 40 ul CellTiter-Glo® Reagent was added to each well, shaken for 2 minutes and allowed to stand for 10 minutes. Detected with SpectraMax Paradigm.
• (1) IC50 was calculated using GraphPad Prism 5. • (2) % Inh=(Max signal−Compound signal)/(Max signal−Min signal)×100. • (3) Max signal was the positive control well with only the same volume of DMSO as the compound. • (4) Min signal was the negative control well with only the culture medium.

JAK1 = target: T2, JAK1 (Homo sapiens, UniProt P23458, cells depend on it, form not given); experiment: JAK family kinase selectivity assay, Ba/F3-TEL-JAK1 cell proliferation; format: cell-based; details: Ba/F3-TEL-JAK1, 72 h; read-out: Ba/F3 Cell IC50 JAK1
T2 construct: fused on or other part: N-terminal part of TEL (ETV6) as oligomerising partner; P41212 (Transcription factor ETV6)
From the text: There are four kinases in the JAK family, respectively TYK2, JAK1, JAK2 and JAK3. JAK family kinase genes were introduced into the wild-type murine B lymphocytes (BaF3), and four BaF3 engineered cell lines were constructed respectively (Ba/F3-FL-TYK2-E957D, Ba/F3-TEL-JAK1, Ba/F3-TEL-JAK2, Ba/F3-TEL-JAK3). The growth and proliferation of these engineered cell lines were not dependent on IL-3, but on exogenously transferred JAK family kinases.
In this experiment, the inhibitory effects of the compounds on the proliferation of four cell types, Ba/F3-FL-TYK2-E957D, Ba/F3-TEL-JAK1, Ba/F3-TEL-JAK2, and Ba/F3-TEL-JAK3 were tested, and apoptosis was detected, and the IC50 values were calculated. The inhibitory activities of the compounds against TYK2, JAK1, JAK2, and JAK3 kinases were evaluated based on the IC50 value, thus assessing the JAK family kinase selectivity of the compounds. […]
Cells (provided by Sundia Pharmaceutical Technology (Shanghai) Co., Ltd.) were resuspended and counted using an automated cell counter. […]
The cell plate was equilibrated to room temperature. […] Detected with SpectraMax Paradigm.
• (1) IC50 was calculated using GraphPad Prism 5. • (2) % Inh=(Max signal-Compound signal)/(Max signal-Min signal)×100. • (3) Max signal was the positive control well with only the same volume of DMSO as the compound. • (4) Min signal was the negative control well with only the culture medium.

hERG potassium channel = target: T3, hERG potassium channel (Homo sapiens, UniProt Q12809); experiment: hERG potassium channel inhibition assay (CHO-hERG cells, Qpatch automated patch clamp); format: cell-based; details: highest tested concentration 40 μM
T3 construct: expressed in transfected cells; host or cells: CHO
Experimental: 4.1 Purpose of the Experiment The blocking effect of the compounds in the present invention on hERG potassium currents on stable cell lines transfected with hERG potassium channels was tested by applying a fully automated membrane clamp.
CHO-hERG cells were cultured in 175 cm^2 culture flasks, and when the cell density grew to 60-80%, the culture medium was removed and washed with 7 ml of PBS (Phosphate Buffered Saline), and then 3 ml of Detachin was added for digestion.
When digestion was completed, 7 ml of culture medium was added to neutralize the cells, then centrifuged, the supernatant was removed, and 5 ml of culture medium was added to resuspend the cells to ensure that the cell density is 2-5×10^6/ml.
The single-cell high-impedance sealing and whole-cell pattern formation processes were all automated with the Qpatch instrument. After obtaining the recording pattern, the cells were clamped at −80 mV, and a −50 mV preconditioning voltage was given for 50 ms prior to giving a +40 mV depolarizing stimulus for 5 s. The cell was then repolarized to −50 mV to be maintained for 5 s and then returned to −80 mV. This voltage stimulus was applied every 15 s. […]
The experimental data was analyzed by XLFit software.

[1] = In vivo pharmacokinetic experiment in rats (oral); design: species or system SD rats; details: 5 mg/kg
Experimental: Experimental method: Healthy male SD rats were randomly grouped into 3 rats in each group and given the test compound orally. The rats were fasted for 12 h before the gavage experiment, and drank water freely, and were fed uniformly for 4 h after the administration of the compounds. Before (0 h) and 0.25, 0.5, 1.0, 2.0, 4.0, 6.0, 8.0 and 24 h after the administration of the test compounds, 0.2 mL of blood was collected from the jugular vein at the above set time points and placed in EDTA-K2 tubes, and the whole blood was collected and stored temporarily in an ice-water bath, and then centrifuged at 11,000 rpm for 5 min within 30 min, the plasma was separated, and frozen at −70° C. in a refrigerator for testing.

T2 sequence (P23458 875-1154 limits assumed, change not shown): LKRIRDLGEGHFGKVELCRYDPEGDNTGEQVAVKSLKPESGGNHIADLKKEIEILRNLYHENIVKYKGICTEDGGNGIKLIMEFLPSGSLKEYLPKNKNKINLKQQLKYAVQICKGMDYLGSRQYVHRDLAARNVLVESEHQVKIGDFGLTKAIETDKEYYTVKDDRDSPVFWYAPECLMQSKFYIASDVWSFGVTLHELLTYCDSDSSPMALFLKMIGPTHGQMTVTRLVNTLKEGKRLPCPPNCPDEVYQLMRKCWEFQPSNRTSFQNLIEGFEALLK
T3 sequence (Q12809 whole entry): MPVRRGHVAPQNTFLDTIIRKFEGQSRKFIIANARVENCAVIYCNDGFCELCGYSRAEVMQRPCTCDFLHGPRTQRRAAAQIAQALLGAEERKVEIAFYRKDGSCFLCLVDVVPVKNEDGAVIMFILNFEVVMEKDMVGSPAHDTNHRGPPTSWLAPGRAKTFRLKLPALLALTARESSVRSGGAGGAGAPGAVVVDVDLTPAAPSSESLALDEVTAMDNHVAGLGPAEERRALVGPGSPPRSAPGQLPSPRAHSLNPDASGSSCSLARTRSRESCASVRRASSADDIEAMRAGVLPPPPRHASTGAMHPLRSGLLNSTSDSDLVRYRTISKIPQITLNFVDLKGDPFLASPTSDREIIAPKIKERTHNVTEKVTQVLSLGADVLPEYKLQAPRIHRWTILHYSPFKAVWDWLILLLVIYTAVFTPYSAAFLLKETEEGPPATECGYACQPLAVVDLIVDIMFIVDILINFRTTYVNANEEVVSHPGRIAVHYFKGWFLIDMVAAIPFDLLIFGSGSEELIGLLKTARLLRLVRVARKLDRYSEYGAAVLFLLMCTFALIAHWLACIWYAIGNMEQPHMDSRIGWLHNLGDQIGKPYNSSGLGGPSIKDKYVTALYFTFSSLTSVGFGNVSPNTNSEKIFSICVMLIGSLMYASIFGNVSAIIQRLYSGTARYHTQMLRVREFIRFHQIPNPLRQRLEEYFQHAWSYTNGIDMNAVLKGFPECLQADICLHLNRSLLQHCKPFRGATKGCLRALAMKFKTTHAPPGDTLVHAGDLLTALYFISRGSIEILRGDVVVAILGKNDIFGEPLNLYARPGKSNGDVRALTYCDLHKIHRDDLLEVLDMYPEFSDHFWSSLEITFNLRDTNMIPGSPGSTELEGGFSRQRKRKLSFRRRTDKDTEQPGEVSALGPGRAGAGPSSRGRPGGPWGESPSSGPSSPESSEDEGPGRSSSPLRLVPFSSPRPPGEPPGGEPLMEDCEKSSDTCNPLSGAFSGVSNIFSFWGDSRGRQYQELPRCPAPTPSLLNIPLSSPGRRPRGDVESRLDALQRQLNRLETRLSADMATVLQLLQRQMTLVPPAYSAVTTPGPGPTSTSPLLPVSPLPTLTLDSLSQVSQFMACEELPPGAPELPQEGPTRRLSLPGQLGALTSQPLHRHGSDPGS
T1 sequence (P29597 whole entry E957D): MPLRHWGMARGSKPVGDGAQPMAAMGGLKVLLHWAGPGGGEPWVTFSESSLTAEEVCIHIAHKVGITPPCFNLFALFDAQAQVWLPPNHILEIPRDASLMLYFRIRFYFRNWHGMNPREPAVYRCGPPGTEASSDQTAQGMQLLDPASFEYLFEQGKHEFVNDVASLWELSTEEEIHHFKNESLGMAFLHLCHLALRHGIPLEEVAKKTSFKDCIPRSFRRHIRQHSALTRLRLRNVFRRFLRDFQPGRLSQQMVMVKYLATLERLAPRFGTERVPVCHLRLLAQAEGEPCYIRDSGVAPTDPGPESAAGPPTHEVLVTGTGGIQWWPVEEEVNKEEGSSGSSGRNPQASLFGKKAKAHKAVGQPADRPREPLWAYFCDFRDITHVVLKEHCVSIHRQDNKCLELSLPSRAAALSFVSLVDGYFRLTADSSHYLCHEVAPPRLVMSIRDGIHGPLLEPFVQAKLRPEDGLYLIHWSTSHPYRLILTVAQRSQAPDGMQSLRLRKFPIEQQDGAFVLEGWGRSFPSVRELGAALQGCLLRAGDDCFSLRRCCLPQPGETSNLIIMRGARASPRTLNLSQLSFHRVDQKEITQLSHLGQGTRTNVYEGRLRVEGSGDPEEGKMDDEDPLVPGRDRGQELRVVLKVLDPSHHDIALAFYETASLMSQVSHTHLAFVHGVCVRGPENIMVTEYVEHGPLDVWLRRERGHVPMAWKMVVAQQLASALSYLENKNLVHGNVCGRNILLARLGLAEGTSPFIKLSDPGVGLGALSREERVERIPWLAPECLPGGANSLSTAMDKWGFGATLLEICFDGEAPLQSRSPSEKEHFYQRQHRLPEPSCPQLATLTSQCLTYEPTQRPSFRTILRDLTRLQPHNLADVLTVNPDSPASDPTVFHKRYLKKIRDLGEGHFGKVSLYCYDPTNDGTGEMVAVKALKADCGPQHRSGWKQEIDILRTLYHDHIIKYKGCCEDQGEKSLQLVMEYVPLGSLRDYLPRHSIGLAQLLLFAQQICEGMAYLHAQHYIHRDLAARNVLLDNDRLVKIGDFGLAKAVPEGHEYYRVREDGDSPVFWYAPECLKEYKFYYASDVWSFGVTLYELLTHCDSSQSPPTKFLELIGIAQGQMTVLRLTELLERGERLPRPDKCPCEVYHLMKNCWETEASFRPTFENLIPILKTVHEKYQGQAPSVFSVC

[2H]C([2H])([2H])NC(=O)c1nnc(NC(=O)C2CC2)cc1Nc1nc(N)c(Cl)cc1[S@@](C)(=O)=NC [Example 28]
IC50 (TYK2): 0.6 nM | GI50 (JAK1): > 1000 nM | IC50 (hERG potassium channel): > 30000 nM | AUC [1]: 2644 ngh/mL | F [1]: 103.8% | Cmax ([1]; male, SD, rat, plasma): 651 ng/mL | MRT ([1]; male, SD, rat, plasma): 3.54 h | half-life ([1]; male, SD, rat, plasma): 2.48 h

[2H]C([2H])([2H])NC(=O)c1nnc(NC(=O)C2CC2)cc1Nc1nc(N)c(Cl)cc1[S@](C)(=N)=O [Example 29, (R)-4-((6-amino-5-chloro-3-(S-methylsulfoximino)pyridin-2-yl)amino)-6-(cyclopropylcarboxamido)-N-(methyl-d3)pyridazine-3-carboxamide]
IC50 (TYK2): 1.1 nM | GI50 (JAK1): > 1000 nM | IC50 (hERG potassium channel): > 30000 nM
